Experimental data: publication PMC9824012, “Exploring Antimicrobial Peptides Efficacy against Fire Blight (Erwinia amylovora)” (Plants, 2022)
Like-named read-outs stand apart in the source and are kept apart here. Ends that are not written are not given here.

Assays:
Erwinia amylovora [1] = experiment: Spot test screening of AMPs on plates; assay type: cell-based, Erwinia amylovora strain PGL Z1; design: key to Spot test result at 1 mM / Spot test result at 500 µM / Spot test result at 250 µM / Spot test result at 100 µM / Spot test result at 50 µM / Spot test result at 25 µM / Spot test result at 12.5 µM: +: Clear plaque formation; -: no plaque formation; conditions: for Spot test result at 12.5 µM: 5 µL peptide at 12.5 µM spotted on plate with E. amylovora 10^8 CFU/mL; for Spot test result at 12.5 µM / Spot test result at 25 µM / Spot test result at 50 µM / Spot test result at 100 µM / Spot test result at 250 µM / Spot test result at 500 µM / Spot test result at 1 mM: overnight at 25 °C; for Spot test result at 25 µM: 5 µL peptide at 25 µM spotted on plate with E. amylovora 10^8 CFU/mL; for Spot test result at 50 µM: 5 µL peptide at 50 µM spotted on plate with E. amylovora 10^8 CFU/mL; for Spot test result at 100 µM: 5 µL peptide at 100 µM spotted on plate with E. amylovora 10^8 CFU/mL; for Spot test result at 250 µM: 5 µL peptide at 250 µM spotted on plate with E. amylovora 10^8 CFU/mL; for Spot test result at 500 µM: 5 µL peptide at 500 µM spotted on plate with E. amylovora 10^8 CFU/mL; for Spot test result at 1 mM: 5 µL peptide at 1 mM spotted on plate with E. amylovora 10^8 CFU/mL; for Spot test, killing of E. amylovora at 50 µM (in words): peptide 50 µM
Protocol: (§1) The bacterial material consisted of E. amylovora strain PGL Z1, isolated in 2013 from pear in Apulia region (Italy), and Xanthomonas campestris pv. campestris strain CFBP 1710 (X. campestris), isolated in 1975 from Brassica oleracea var. botrytis in France, which was used as a control to investigate the bactericidal activity and action mode of AMPs against two different bacteria. The bacterial strains were cultured on yeast extract peptone glucose agar (YPGA) and broth (YPG) media, consisting of 0.5% yeast extract, 0.5% peptone, 1% glucose and 1.5% agar. E. amylovora and X. campestris cell suspensions were prepared in sterile distilled water and the suspensions were adjusted to an optical density at 600 nm (OD600) of 0.1, which corresponds approximately to 10^8 CFU/mL.
The nine AMPs were screened using the spot test to select those with the best antibacterial activity against E. amylovora. Briefly, 300 µL of E. amylovora suspension (10^8 CFU/mL) was poured into the plates and maintained at room temperature for 15 min. Subsequently, 5 μL from each peptide at different concentrations (1000, 500, 250, 100, 50, 25 and 12.5 μM) was spotted onto the surface of the plates, followed by overnight incubation at 25 °C. Sterile distilled water was spotted in the plates as a control.
Supplementary Table S1. Results of the spot tests for the nine antimicrobial peptides used against Erwinia
Ascaphin-8 GF-19 + + + + + - -
DASamP1 FF-13 + + + - - - -
DASamP2 IL-14 + + + + + - -
Lycotoxin I IL-25 + + + + - - -
Maculatin 1.3 GF-21 + + + - - - -
Piscidin 1 FG-22 + + + + + - -
BP178 KL-29 + + + + + + -
RIJK2 RV-12 + + + - - - -
+: Clear plaque formation; -: no plaque formation.

Erwinia amylovora [2] = experiment: Fluorescence microscopy LIVE/DEAD BacLight (SYTO9/PI); assay type: cell-based, Erwinia amylovora strain PGL Z1; conditions: 1 h, calculated from SYTO9 and PI counts
Protocol: The bactericidal activity of the selected peptides (GF19, FG22, IL14, and KL29) was assessed by a test contact for 24 h, as described (Section 2.3), coupled with v-qPCR assay using the PMAxx™ (Biotium, Rome, Italy). PMAxx™ is a photo-reactive dye that binds to DNA with high affinity; upon cell lysis, it covalently attaches to disrupted DNA that cannot be amplified by PCR. This unique feature makes PMAxx™ extremely useful in selective detection of bacterial cells with intact plasma membranes by qPCR. Briefly, after 24 h at 25 °C, 200 µL of the mixture was transferred to a new tube and treated with PMAxx at a final concentration of 7.5 μM. Subsequently, samples were incubated in the dark at room temperature for 8 min, followed by photoactivation for 15 min. Genomic DNA of all samples was extracted using the cetyltrimethylammonium bromide (CTAB) method. v-qPCR was carried out in a thermocycler apparatus (Bio-Rad CFX96, BioRad, Milan, Italy), using Ea-lsc primers and conditions reported in Laforest et al.. The v-qPCR cycles consisted of an initial denaturation step of 95 °C for 5 min; 45 cycles of 95 °C for 30 s and 60 °C for 30 s with fluorescence readings at each cycle. For the FM assay, aliquots of E. amylovora suspension were incubated with 50 and 250 μM of selected peptides for 1 h at room temperature. The same protocol was used for X. campestris at different concentrations (100, 50, 25, 12.5, 6.25, 2 μM) using KL29 peptide, known for its potent bactericidal activity against X. campestris. The LIVE/DEAD ®BacLight™ viability kit (ThermoFisher Scientific, Milan, Italy) was used according to the manufacturer’s recommendation to assess the integrity of bacteria cells treated with the peptides at 1 h post-infection (Stocks, 2004). Briefly, 9 μL of sample was mixed with 0.5 μL of SYTO9 and 0.5 μL of propidium iodide (PI) for 15 min at room temperature in the dark. Photomicrographs were taken with a Nikon E800 microscope using a fluorescein isothiocyanate (480/30 excitation filter, DM505 dichroic mirror, 535/40 emission filter) and tetramethyl rhodamine isocyanate (546/10 excitation filter, DM575 dichroic mirror, 590 emission filter) fluorescence filter sets.
Supplementary Table S2. The statistical analysis consisted of counting the coloured spo ts (green: SYTO9 and red: PI) in the different channels of 10 replicas for the two concentrations of each antimicrobial peptide and the relative percentages of viable cells is calculated.
250 µM 50 µM % of viability
(1 picture or pasted object on this page, not shown here)

horse erythrocyte cells = assay type: cell-based
Protocol: (§2) The possible toxicity of the selected peptides was evaluated using immature pear fruits (cv. ‘Recchia falsa’), and horse erythrocyte cells, respectively, as plant and animal cell models. Briefly, six fruits for each peptide were pricked to approximately 5 mm deep and inoculated with 100 µL of the corresponding peptide at 50 and 250 µM concentrations. Fruits were kept in a chamber at room temperature for 5 days and repeatedly examined for the development of lesions. The peptide toxicity was measured as lesion diameter. Erythrocytes from a horse blood sample (provided by the University of Bari, Department of Veterinary Medicine, Valenzano, Italy) were used for the hemolytic assay. The erythrocytes were challenged with AMPs at 50 and 250 µM for 3 h and their possible hemolytic activity was observed under light microscope.

Erwinia amylovora [3] = experiment: In vivo antibacterial activity on inoculated immature pear fruits; design: species or system Erwinia amylovora on pear fruits (cv. 'Recchia falsa'); conditions: immature pears, 6 days at 25 °C, eight replicates
Protocol: To evaluate the in vivo antibacterial activity of selected AMPs, immature pear fruits (cv. ‘Recchia falsa’) were inoculated with E. amylovora and AMPs were applied. Briefly, ten-week-old pears were disinfected by immersion in a 70% ethanol solution for 2 min and then rinsed 3 times in sterile distilled water. Disinfected fruits were pricked to approximately 5 mm deep, with a sterile micropipette tip and inoculated with 20 µL of E. amylovora suspension (10^8 CFU/mL). Once the fruits had absorbed the bacteria, two concentrations of peptides (50 and 250 µM) were used; 20 µL of the concentration was introduced into the inoculation site and incubated in a humid chamber at 25 °C for 6 days. Fruits inoculated with sterile water and with E. amylovora suspension were included as controls. The experiment consisted of eight replicates per treatment, and symptoms were recorded at 6 days post-infection. The symptoms developed in immature pears (i.e., necrosis or bacterial exudates) were evaluated by measuring the diameter of necrotic lesions. The data were then analyzed using variance analysis (ANOVA), followed by Duncan’s multiple range test (α = 0.05), using SPSS statistical software (version 24.0, IBM, Armonk, N.Y., USA). All data were presented as mean values ± standard deviation (SD).

immature pear fruits = assay type: in vivo, pear (cv. 'Recchia falsa')
Protocol: as §2

Erwinia amylovora [4] = conditions: 24 h
Protocol: as §1
Briefly, 20 µL from each concentration (50 and 250 µM) was mixed with 180 µL of E. amylovora suspension (YPG) and incubated at 25 °C for 24 h. Six OD600 nm measures were taken over 24 h using the NanoDrop™ One/OneC Microvolume UV-Vis Spectrophotometer (ThermoFisher Scientific, Waltham, MA, USA).

[5] = peptide 50 and 250 µM, 3 h, light microscope
[6] = 20 µL peptide at 50 µM into inoculation site
[7] = 20 µL peptide at 250 µM into inoculation site
[8] = 100 µL peptide at 50 and 250 µM, 5 days at room temperature, six fruits per peptide

## FFGKVLKLIRKIF-NH2 [FF13, DASamP1, synthetic antimicrobial peptide, synthesized by ProteoGenix]
Erwinia amylovora [1]
  Spot test result at 12.5 µM: -
  Spot test result at 25 µM: -
  Spot test result at 50 µM: -
  Spot test result at 100 µM: -
  Spot test result at 250 µM: +
  Spot test result at 500 µM: +
  Spot test result at 1 mM: +

## IKWKKLLRAAKRIL-NH2 [IL14, DASamP2]
Erwinia amylovora [2]; peptide 50 µM
  % of viability: 15%
Erwinia amylovora [2]; peptide 250 µM
  % of viability: 48%
Horse erythrocyte cells; [5]
  Toxicity (hemolytic or cytotoxic activity) on horse erythrocytes (in words): toxicologically safe for plant and animal cells
Erwinia amylovora [3]; [6]
  Reduction of fire blight symptoms (necrotic lesion diameter): 61%
Erwinia amylovora [3]; [7]
  Reduction of fire blight symptoms (necrotic lesion diameter): 76%
Immature pear fruits; [8]
  Toxicity (hypersensitive or cytotoxic activity) on pear fruits (in words): toxicologically safe for plant and animal cells
Erwinia amylovora [1]
  Spot test result at 12.5 µM: -
  Spot test result at 25 µM: -
  Spot test result at 50 µM: +
  Spot test result at 100 µM: +
  Spot test result at 250 µM: +
  Spot test result at 500 µM: +
  Spot test result at 1 mM: +
  Spot test, killing of E. amylovora at 50 µM (in words): could kill E. amylovora

## GLLGLLGSVVSHVVPAIVGHF-NH2 [GF21, Maculatin 1.3, antimicrobial peptide of frog origin, synthesized by ProteoGenix]
Erwinia amylovora [1]
  Spot test result at 12.5 µM: -
  Spot test result at 25 µM: -
  Spot test result at 50 µM: -
  Spot test result at 100 µM: -
  Spot test result at 250 µM: +
  Spot test result at 500 µM: +
  Spot test result at 1 mM: +

## FFHHIFRGIVHVGKTIHRLVTG [FG22, Piscidin 1] [listing 1 of 2 here]
Horse erythrocyte cells
  Toxicity (hemolytic or cytotoxic activity) on horse erythrocytes (in words): toxicologically safe for plant and animal cells
Immature pear fruits; in vivo
  Toxicity (hypersensitive or cytotoxic activity) on pear fruits (in words): toxicologically safe for plant and animal cells

## VQFRIRVRIVIRK-NH2 [VK13, 1036, synthetic antimicrobial peptide, synthesized by ProteoGenix]
Erwinia amylovora [1]
  Spot test result at 12.5 µM: -
  Spot test result at 25 µM: -
  Spot test result at 50 µM: -
  Spot test result at 100 µM: -
  Spot test result at 250 µM: +
  Spot test result at 500 µM: +
  Spot test result at 1 mM: +

## GFKDLLKGAAKALVKTVLF-NH2 [GF19, Ascaphin-8]
Erwinia amylovora [2]; peptide 50 µM
  % of viability: 44%
Erwinia amylovora [2]; peptide 250 µM
  % of viability: 64%
Horse erythrocyte cells; [5]
  Toxicity (hemolytic or cytotoxic activity) on horse erythrocytes (in words): toxicologically safe for plant and animal cells
Erwinia amylovora [3]; [6]
  Reduction of fire blight symptoms (necrotic lesion diameter): 43%
Erwinia amylovora [3]; [7]
  Reduction of fire blight symptoms (necrotic lesion diameter): 48%
Immature pear fruits; [8]
  Toxicity (hypersensitive or cytotoxic activity) on pear fruits (in words): toxicologically safe for plant and animal cells
Erwinia amylovora [1]
  Spot test result at 12.5 µM: -
  Spot test result at 25 µM: -
  Spot test result at 50 µM: +
  Spot test result at 100 µM: +
  Spot test result at 250 µM: +
  Spot test result at 500 µM: +
  Spot test result at 1 mM: +
  Spot test, killing of E. amylovora at 50 µM (in words): could kill E. amylovora

## FFHHIFRGIVHVGKTIHRLVTG [FG22, Piscidin 1] [listing 2 of 2 here]
Erwinia amylovora [2]; peptide 50 µM
  % of viability: 28%
Erwinia amylovora [2]; peptide 250 µM
  % of viability: 49%
Erwinia amylovora [3]; [6]
  Reduction of fire blight symptoms (necrotic lesion diameter): 48%
Erwinia amylovora [3]; [7]
  Reduction of fire blight symptoms (necrotic lesion diameter): 65%
Erwinia amylovora [4]; 50 µM
  Inhibition of E. amylovora growth (OD600): ~60%
Erwinia amylovora [4]; 250 µM
  Inhibition of E. amylovora growth (OD600): 92%
Erwinia amylovora [1]
  Spot test result at 12.5 µM: -
  Spot test result at 25 µM: -
  Spot test result at 50 µM: +
  Spot test result at 100 µM: +
  Spot test result at 250 µM: +
  Spot test result at 500 µM: +
  Spot test result at 1 mM: +
  Spot test, killing of E. amylovora at 50 µM (in words): could kill E. amylovora

## RIVWVRIRRWFV-NH2 [RV12, RIJK2, synthetic antimicrobial peptide, synthesized by ProteoGenix]
Erwinia amylovora [1]
  Spot test result at 12.5 µM: -
  Spot test result at 25 µM: -
  Spot test result at 50 µM: -
  Spot test result at 100 µM: -
  Spot test result at 250 µM: +
  Spot test result at 500 µM: +
  Spot test result at 1 mM: +

## Lycotoxin I [IL25]
Erwinia amylovora [1]
  Spot test result at 12.5 µM: -
  Spot test result at 25 µM: -
  Spot test result at 50 µM: -
  Spot test result at 100 µM: +
  Spot test result at 250 µM: +
  Spot test result at 500 µM: +
  Spot test result at 1 mM: +
